{"source": "ChEMBL document CHEMBL5532720", "about": "“A Potent Solution for Tumor Growth and Angiogenesis Suppression via an ELR+CXCL-CXCR1/2 Pathway Inhibitor” (ACS Med Chem Lett, 2024)", "key": {"[1]": {"target": "cGMP-dependent protein kinase 1 (Homo sapiens) (UniProt Q13976)", "assay": "Inhibition of PRKG1 (unknown origin) at 10 uM in presence of ATP at Km concentration"}, "[2]": {"assay": "Aqueous solubility of compound in SIF at pH 7.5", "assay_type": "ADME"}, "[3]": {"assay": "Protein binding in mouse plasma", "assay_type": "ADME, cell-free", "settings": "read-out: PPB (converted)"}, "786-0": {"test_system": "786-0", "assay": "Antitumor activity against human 786-0 cells xenografted in athymic nude mouse assessed as tumor growth inhibition at 100 mg/kg, po administered twice daily via gavage for 28 days relative to control", "assay_type": "functional", "settings": "786-0, 672 h, time 28 day, read-out: TGI"}, "[4]": {"target": "Phosphatidylinositol 4-phosphate 5-kinase type-1 gamma (Homo sapiens) (UniProt O60331)", "assay": "Inhibition of PIP5K1C (unknown origin) at 10 uM in presence of ATP at Km concentration"}, "[5]": {"target": "Angiopoietin-1 receptor (Homo sapiens) (UniProt Q02763)", "assay": "Inhibition of TEK (unknown origin) at 10 uM in presence of ATP at Km concentration"}, "[6]": {"target": "Eukaryotic elongation factor 2 kinase (Homo sapiens) (UniProt O00418)", "sequence (O00418 whole entry)": "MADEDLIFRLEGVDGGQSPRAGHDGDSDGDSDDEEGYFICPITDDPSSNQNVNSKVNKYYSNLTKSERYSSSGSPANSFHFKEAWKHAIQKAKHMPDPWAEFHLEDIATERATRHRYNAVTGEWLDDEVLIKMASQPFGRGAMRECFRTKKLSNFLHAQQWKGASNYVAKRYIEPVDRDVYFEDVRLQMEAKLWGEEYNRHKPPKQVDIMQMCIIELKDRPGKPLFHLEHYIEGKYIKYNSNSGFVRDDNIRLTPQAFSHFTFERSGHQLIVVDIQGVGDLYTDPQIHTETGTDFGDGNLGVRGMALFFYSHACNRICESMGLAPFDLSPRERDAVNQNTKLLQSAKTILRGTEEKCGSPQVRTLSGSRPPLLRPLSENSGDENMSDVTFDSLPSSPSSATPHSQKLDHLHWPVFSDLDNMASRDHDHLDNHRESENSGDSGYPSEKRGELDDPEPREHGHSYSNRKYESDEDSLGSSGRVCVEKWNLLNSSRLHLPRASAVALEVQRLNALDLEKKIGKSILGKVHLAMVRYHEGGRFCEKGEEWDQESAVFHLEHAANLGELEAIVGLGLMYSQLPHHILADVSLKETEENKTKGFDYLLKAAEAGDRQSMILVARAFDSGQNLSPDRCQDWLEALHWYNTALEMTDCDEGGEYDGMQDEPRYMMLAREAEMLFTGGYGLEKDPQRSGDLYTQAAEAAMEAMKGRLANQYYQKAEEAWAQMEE", "assay": "Inhibition of EEF2K (unknown origin) at 10 uM in presence of ATP at Km concentration"}, "[7]": {"target": "Ribosomal protein S6 kinase alpha-2 (Homo sapiens) (UniProt Q15349)", "assay": "Inhibition of RPS6KA2 (unknown origin) at 10 uM in presence of ATP at Km concentration"}, "[8]": {"target": "Protein kinase C eta type (Homo sapiens) (UniProt P24723)", "sequence (P24723 whole entry)": "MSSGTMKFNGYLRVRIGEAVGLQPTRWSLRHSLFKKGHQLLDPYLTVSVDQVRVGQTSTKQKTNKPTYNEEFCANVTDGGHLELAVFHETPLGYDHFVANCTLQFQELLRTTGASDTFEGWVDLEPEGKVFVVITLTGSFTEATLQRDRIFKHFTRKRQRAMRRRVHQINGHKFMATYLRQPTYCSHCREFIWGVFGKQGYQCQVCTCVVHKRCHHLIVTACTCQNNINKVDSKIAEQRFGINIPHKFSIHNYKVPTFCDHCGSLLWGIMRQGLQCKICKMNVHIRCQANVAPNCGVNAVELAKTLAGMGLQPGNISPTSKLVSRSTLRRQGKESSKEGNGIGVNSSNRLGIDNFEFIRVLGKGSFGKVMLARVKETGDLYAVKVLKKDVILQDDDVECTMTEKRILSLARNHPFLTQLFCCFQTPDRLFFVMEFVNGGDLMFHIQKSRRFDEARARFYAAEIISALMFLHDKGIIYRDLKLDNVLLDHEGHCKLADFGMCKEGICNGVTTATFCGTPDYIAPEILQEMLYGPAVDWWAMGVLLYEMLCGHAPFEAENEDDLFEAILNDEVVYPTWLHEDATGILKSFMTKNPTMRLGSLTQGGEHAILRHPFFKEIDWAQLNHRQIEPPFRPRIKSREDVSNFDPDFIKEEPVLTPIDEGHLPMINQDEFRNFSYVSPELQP", "assay": "Inhibition of PRKCH (unknown origin) at 10 uM in presence of ATP at Km concentration"}, "[9]": {"assay": "C0 in NOD SCID mouse at 1 mg/kg, iv", "assay_type": "ADME, organism-based", "settings": "in vivo"}, "[10]": {"assay": "Lipophilicity, logD of compound at pH 7.4", "assay_type": "physicochemical", "settings": "buffer"}, "[11]": {"target": "Inhibitor of nuclear factor kappa-B kinase subunit beta (Homo sapiens) (UniProt O14920)", "assay": "Inhibition of IKBKB (unknown origin) at 10 uM in presence of ATP at Km concentration"}, "[12]": {"assay": "Toxicity in athymic nude mouse xenografted with human 786-0 cells assessed as effect on food consumption at 100 mg/kg, po administered twice daily via gavage for 28 days", "assay_type": "organism-based", "settings": "in vivo, 672 h, time 28 day"}, "[13]": {"assay": "Genotoxicity in Salmonella typhimurium TA98 upto 100 uM in absence of S9 fraction by Ames test", "assay_type": "toxicity", "settings": "salmonella enterica subsp. enterica serovar typhimurium, s9, 100 µM"}, "[14]": {"assay": "Half-life in NOD SCID mouse at 1 mg/kg, iv", "assay_type": "ADME, organism-based", "settings": "in vivo"}, "[15]": {"target": "Serine/threonine-protein kinase N2 (Homo sapiens) (UniProt Q16513)", "assay": "Inhibition of PKN2 (unknown origin) at 10 uM in presence of ATP at Km concentration"}, "[16]": {"assay": "Stability in human hepatocytes assessed as intrinsic clearance measured per 10^6 cells", "assay_type": "ADME, cell-based, Hepatocyte", "settings": "read-out: CLH"}, "[17]": {"assay": "Protein binding in human plasma", "assay_type": "ADME, cell-free", "settings": "read-out: PPB (converted)"}, "[18]": {"target": "Tyrosine-protein kinase Fyn (Homo sapiens) (UniProt P06241)", "assay": "Inhibition of FYN (unknown origin) at 10 uM in presence of ATP at Km concentration"}, "[19]": {"assay": "Oral bioavailability in NOD SCID mouse at 100 mg/kg", "assay_type": "ADME, organism-based", "settings": "in vivo"}, "[20]": {"target": "Phosphatidylinositol 4-kinase beta (Homo sapiens) (UniProt Q9UBF8)", "assay": "Inhibition of PI4KB (unknown origin) at 10 uM in presence of ATP at Km concentration"}, "[21]": {"target": "Aurora kinase B (Homo sapiens) (UniProt Q96GD4)", "sequence (Q96GD4 whole entry)": "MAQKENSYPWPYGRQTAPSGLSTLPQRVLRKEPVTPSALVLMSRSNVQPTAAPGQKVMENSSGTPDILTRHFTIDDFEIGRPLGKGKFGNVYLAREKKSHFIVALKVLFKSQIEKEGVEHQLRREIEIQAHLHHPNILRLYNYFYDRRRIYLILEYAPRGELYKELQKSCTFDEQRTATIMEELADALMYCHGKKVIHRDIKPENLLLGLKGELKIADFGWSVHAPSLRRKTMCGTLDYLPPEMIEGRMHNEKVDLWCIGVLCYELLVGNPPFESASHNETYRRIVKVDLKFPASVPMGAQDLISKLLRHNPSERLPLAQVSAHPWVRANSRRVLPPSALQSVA", "assay": "Inhibition of AURKB (unknown origin) at 10 uM in presence of ATP at Km concentration"}, "[22]": {"target": "Ribosomal protein S6 kinase beta-2 (Homo sapiens) (UniProt Q9UBS0)", "sequence (Q9UBS0 whole entry)": "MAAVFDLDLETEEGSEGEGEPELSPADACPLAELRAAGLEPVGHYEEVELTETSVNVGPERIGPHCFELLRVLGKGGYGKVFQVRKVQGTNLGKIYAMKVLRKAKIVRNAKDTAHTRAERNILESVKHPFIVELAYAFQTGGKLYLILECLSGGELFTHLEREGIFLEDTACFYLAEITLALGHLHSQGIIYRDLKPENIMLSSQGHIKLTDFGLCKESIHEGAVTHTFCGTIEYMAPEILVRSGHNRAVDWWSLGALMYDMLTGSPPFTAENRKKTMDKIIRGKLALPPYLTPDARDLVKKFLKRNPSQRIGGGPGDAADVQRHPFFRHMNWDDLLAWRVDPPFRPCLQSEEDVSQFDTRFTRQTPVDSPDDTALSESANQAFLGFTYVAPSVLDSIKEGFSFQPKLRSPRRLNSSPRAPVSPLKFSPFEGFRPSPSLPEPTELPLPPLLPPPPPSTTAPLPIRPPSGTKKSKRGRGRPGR", "assay": "Inhibition of RPS6KB2 (unknown origin) at 10 uM in presence of ATP at Km concentration"}, "[23]": {"target": "[Pyruvate dehydrogenase (acetyl-transferring)] kinase isozyme 1, mitochondrial (Homo sapiens) (UniProt Q15118)", "assay": "Inhibition of PDK1 (unknown origin) at 10 uM in presence of ATP at Km concentration"}, "[24]": {"target": "Interleukin-1 receptor-associated kinase 4 (Homo sapiens) (UniProt Q9NWZ3)", "assay": "Inhibition of IRAK4 (unknown origin) at 10 uM in presence of ATP at Km concentration"}, "RCC4": {"test_system": "RCC4", "assay": "Antiproliferative activity against human RCC4 cells incubated for 48 hrs by XTT assay", "assay_type": "functional, cell-based", "settings": "RCC4, 48 h"}, "[25]": {"target": "Serine/threonine-protein kinase PAK 4 (Homo sapiens) (UniProt O96013)", "assay": "Inhibition of PAK4 (unknown origin) at 10 uM in presence of ATP at Km concentration"}, "A498 [26]": {"test_system": "A498", "assay": "Antimetastatic activity against human A498 cells labeled with vybrant DiD cell-labeling solution xenografted in zebrafish embryo at 1 uM incubated for 72 hrs by fluorescence microscopic imaging analysis", "assay_type": "functional, cell-based"}, "[27]": {"target": "Mitogen-activated protein kinase 15 (Homo sapiens) (UniProt Q8TD08)", "assay": "Inhibition of MAPK15 (unknown origin) at 10 uM in presence of ATP at Km concentration"}, "A498 [28]": {"test_system": "A498", "assay": "Effect on VEGFA production in human A498 cells at 1 to 2.5 uM incubated for 48 hrs by ELISA", "assay_type": "functional, cell-based", "settings": "dose 1-2.5 µM"}, "[29]": {"assay": "AUC (0 to infinity) in NOD SCID mouse at 50 mg/kg, po", "assay_type": "ADME, organism-based", "settings": "in vivo"}, "[30]": {"target": "Vascular endothelial growth factor receptor 2 (Homo sapiens) (UniProt P35968)", "assay": "Inhibition of KDR (unknown origin) at 10 uM in presence of ATP at Km concentration"}, "A498 [31]": {"test_system": "A498", "assay": "Antiproliferative activity against human A498 cells incubated for 48 hrs by XTT assay", "assay_type": "functional, cell-based", "settings": "A498, 48 h"}, "CAL-33": {"test_system": "CAL-33", "assay": "Antiproliferative activity against human CAL-33 cells incubated for 48 hrs by XTT assay", "assay_type": "functional, cell-based", "settings": "CAL-33, 48 h"}, "[32]": {"target": "Mitogen-activated protein kinase 9 (Homo sapiens) (UniProt P45984)", "assay": "Inhibition of MAPK9 (unknown origin) at 10 uM in presence of ATP at Km concentration"}, "[33]": {"target": "Tyrosine-protein kinase JAK1 (Homo sapiens) (UniProt P23458)", "sequence (P23458 whole entry)": "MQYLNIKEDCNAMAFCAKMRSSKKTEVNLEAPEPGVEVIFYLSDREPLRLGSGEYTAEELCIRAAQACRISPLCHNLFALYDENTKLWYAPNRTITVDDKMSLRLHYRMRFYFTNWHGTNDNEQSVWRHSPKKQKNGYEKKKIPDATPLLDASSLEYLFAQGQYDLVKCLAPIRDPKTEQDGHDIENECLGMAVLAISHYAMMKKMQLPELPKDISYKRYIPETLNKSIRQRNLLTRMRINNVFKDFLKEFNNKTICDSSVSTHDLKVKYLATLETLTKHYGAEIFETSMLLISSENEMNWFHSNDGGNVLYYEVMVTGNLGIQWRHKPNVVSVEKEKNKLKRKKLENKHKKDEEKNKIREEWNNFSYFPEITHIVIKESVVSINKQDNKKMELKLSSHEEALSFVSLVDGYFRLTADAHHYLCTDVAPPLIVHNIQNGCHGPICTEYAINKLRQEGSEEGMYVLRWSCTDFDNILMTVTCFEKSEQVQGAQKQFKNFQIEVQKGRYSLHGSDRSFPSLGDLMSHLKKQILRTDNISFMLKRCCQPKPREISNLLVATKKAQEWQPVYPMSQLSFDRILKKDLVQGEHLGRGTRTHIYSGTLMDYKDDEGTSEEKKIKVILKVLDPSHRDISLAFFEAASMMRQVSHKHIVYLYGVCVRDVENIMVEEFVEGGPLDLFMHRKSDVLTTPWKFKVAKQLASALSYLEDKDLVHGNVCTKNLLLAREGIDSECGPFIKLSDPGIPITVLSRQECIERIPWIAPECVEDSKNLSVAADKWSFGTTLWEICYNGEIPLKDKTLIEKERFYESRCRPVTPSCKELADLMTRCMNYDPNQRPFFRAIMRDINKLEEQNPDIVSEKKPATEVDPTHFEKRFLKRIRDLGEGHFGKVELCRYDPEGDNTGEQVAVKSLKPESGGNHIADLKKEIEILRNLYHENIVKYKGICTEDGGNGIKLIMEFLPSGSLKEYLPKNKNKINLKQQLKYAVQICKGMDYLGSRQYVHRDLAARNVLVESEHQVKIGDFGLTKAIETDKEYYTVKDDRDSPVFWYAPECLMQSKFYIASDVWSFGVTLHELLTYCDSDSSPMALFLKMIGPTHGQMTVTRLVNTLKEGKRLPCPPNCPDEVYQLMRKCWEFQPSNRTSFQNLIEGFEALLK", "assay": "Inhibition of JAK1 (unknown origin) at 10 uM in presence of ATP at Km concentration"}, "[34]": {"assay": "Stability in mouse microsomes assessed as half-life", "assay_type": "ADME, Microsome"}, "[35]": {"target": "Casein kinase I isoform epsilon (Homo sapiens) (UniProt P49674)", "assay": "Inhibition of CSNK1E (unknown origin) at 10 uM in presence of ATP at Km concentration"}, "[36]": {"assay": "Stability of compound in DMSO measured after 24 hrs", "assay_type": "physicochemical"}, "[37]": {"target": "Myosin-IIIb (Homo sapiens) (UniProt Q8WXR4)", "sequence (Q8WXR4 whole entry)": "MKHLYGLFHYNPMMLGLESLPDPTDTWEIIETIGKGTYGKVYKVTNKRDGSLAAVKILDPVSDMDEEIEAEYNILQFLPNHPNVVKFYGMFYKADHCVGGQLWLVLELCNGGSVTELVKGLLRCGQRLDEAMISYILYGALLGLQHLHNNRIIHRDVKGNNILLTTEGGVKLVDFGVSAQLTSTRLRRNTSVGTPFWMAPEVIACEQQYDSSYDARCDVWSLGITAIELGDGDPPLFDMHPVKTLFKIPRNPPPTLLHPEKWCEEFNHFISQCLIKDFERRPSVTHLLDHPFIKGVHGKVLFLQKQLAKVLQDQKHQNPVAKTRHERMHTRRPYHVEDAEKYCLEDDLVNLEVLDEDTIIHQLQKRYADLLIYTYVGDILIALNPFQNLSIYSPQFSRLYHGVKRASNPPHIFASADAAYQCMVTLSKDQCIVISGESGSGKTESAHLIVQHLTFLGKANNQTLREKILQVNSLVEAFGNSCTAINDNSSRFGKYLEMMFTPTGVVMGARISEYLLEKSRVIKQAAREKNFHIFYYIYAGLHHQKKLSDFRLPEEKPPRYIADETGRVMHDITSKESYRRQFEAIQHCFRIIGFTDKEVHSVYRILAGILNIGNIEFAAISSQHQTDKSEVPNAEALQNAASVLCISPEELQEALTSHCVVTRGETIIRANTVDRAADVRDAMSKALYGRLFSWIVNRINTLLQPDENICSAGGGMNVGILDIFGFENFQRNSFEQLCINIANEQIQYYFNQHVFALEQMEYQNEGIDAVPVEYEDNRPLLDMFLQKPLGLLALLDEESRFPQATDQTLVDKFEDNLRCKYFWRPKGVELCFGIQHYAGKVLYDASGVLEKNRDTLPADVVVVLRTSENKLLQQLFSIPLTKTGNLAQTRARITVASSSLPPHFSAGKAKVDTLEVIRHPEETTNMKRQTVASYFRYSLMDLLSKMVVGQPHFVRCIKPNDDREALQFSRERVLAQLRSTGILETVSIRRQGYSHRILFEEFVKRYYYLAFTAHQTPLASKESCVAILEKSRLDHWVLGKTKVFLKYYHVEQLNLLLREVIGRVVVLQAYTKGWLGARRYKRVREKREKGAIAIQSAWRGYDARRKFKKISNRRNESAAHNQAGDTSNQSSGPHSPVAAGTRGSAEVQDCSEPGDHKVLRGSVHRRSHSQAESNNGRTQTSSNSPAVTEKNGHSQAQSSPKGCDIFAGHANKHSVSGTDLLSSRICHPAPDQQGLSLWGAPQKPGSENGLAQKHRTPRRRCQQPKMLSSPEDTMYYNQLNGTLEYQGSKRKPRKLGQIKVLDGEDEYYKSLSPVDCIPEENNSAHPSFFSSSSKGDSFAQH", "assay": "Inhibition of MYO3B (unknown origin) at 10 uM in presence of ATP at Km concentration"}, "[38]": {"assay": "Stability in human hepatocytes assessed as half-life", "assay_type": "ADME, cell-based, Hepatocyte"}, "[39]": {"assay": "Tmax in NOD SCID mouse at 200 mg/kg, po", "assay_type": "ADME, organism-based", "settings": "in vivo"}}, "note": "The source made the active and inactive calls. The calls are words filed in the database; no cut-off is given here."}
{"molecule": "O=C(Nc1cc(Cl)cc(Cl)c1)Nc1nc2ccc([N+](=O)[O-])cc2s1", "values": [{"measurement": "inhibition", "setting": "[1]", "result": "inactive"}, {"measurement": "solubility", "setting": "[2]", "result": 3, "unit": "µM"}, {"measurement": "fraction unbound", "setting": "[3]", "result": 0.004}, {"measurement": "inhibition in vivo at 100 mg/kg", "setting": "786-0", "result": 87, "unit": "%"}, {"measurement": "inhibition", "setting": "[4]", "result": "inactive"}, {"measurement": "inhibition", "setting": "[5]", "result": "inactive"}, {"measurement": "inhibition", "setting": "[6]", "result": "inactive"}, {"measurement": "inhibition", "setting": "[7]", "result": "inactive"}, {"measurement": "inhibition", "setting": "[8]", "result": "inactive"}, {"measurement": "C0", "setting": "[9]", "result": 3.6, "unit": "µM"}, {"measurement": "logD", "setting": "[10]", "result": 2.86}, {"measurement": "inhibition", "setting": "[11]", "result": "inactive"}, {"measurement": "Activity", "setting": "[12]", "result": "Non-Toxic"}, {"measurement": "Activity", "setting": "[13]", "result": "Non-Toxic"}, {"measurement": "half-life", "setting": "[14]", "result": 24, "unit": "min"}, {"measurement": "inhibition", "setting": "[15]", "result": "inactive"}, {"measurement": "hepatocyte CLint", "setting": "[16]", "result": 35.9, "unit": "µL/min/1e6 cells"}, {"measurement": "fraction unbound", "setting": "[17]", "result": 0.004}, {"measurement": "inhibition", "setting": "[18]", "result": "inactive"}, {"measurement": "bioavailability", "setting": "[19]", "result": 33, "unit": "%"}, {"measurement": "inhibition", "setting": "[20]", "result": "inactive"}, {"measurement": "inhibition", "setting": "[21]", "result": "inactive"}, {"measurement": "inhibition", "setting": "[22]", "result": "inactive"}, {"measurement": "inhibition", "setting": "[23]", "result": "inactive"}, {"measurement": "inhibition", "setting": "[24]", "result": "inactive"}, {"measurement": "IC50", "setting": "RCC4", "result": 2, "unit": "µM"}, {"measurement": "inhibition", "setting": "[25]", "result": "inactive"}, {"measurement": "Activity", "setting": "A498 [26]", "result": "Active"}, {"measurement": "inhibition", "setting": "[27]", "result": "inactive"}, {"measurement": "Activity", "setting": "A498 [28]", "result": "inactive"}, {"measurement": "AUC(0-inf)", "setting": "[29]", "result": 8390, "unit": "ng·h/mL"}, {"measurement": "inhibition", "setting": "[30]", "result": "inactive"}, {"measurement": "IC50", "setting": "A498 [31]", "result": 2, "unit": "µM"}, {"measurement": "IC50", "setting": "CAL-33", "result": 4, "unit": "µM"}, {"measurement": "inhibition", "setting": "[32]", "result": "inactive"}, {"measurement": "inhibition", "setting": "[33]", "result": "inactive"}, {"measurement": "half-life", "setting": "[34]", "result": "> 60", "unit": "min"}, {"measurement": "inhibition", "setting": "[35]", "result": "inactive"}, {"measurement": "Stability", "setting": "[36]", "result": "Stable"}, {"measurement": "inhibition", "setting": "[37]", "result": "inactive"}, {"measurement": "half-life", "setting": "[38]", "result": 38.6, "unit": "min"}, {"measurement": "Tmax", "setting": "[39]", "result": 60, "unit": "min"}]}
